Source: patent US11512073B2, “Benzimidazole derivatives, pharmaceutical composition comprising the same, and use thereof” (Chongqing University of Arts and Sciences, priority 2020, dated 2022)

Experiments:
TNBC cells = experiment: MTT cell viability assay, statements for both TNBC lines; type: cell-based, Human; details: MDA-MB-231 and MDA-MB-468; 24, 48 and 72 h
Protocol: Compounds were dissolved in a hydrous dimethylsulfoxide (DMSO, Life technologies) to obtain a 50 mM stock solution, which was then added to the culture medium at a concentration range of 6.25-100 μM. […] Z-VAD-FMK was purchased from Selleckchem (Houston, Tex.); The reagents including 3-(4,5-dimethylthiazol-2-yl)-2,5-diphenyltetrazolium bromide (MTT), dimethyl sulfoxide (DMSO), penicillin, streptomycin, propidium iodide (PI) were purchased from Sigma-Aldrich (MO, USA); All the primary antibodies used in this study were from Cell Signaling Technology (MA, USA) and the secondary antibodies were from LI-COR Biosciences (NE, USA).
Human triple negative breast cancer cell lines MDA-MB-231 and MDA-MB-468 were purchased from the American Type Culture Collection (ATCC, VA, USA). These cells were cultured in high-glucose DMEM (Gibco, USA) supplemented with 10% fetal bovine serum (FBS, Gibco) and 1% penicillin/streptomycin (Gibco) at 37° C. in a humidified incubator containing 5% CO2.
The antiproliferative activity of compounds was measured with the MTT assay. […] The absorbance value was determined at 570 nm using a microplate reader (Bio-Tek, VT, USA). Data were analyzed by GraphPad Prism 6. […]

[1] = test system: MDA-MB-231 and MDA-MB-468 cells; experiment: Mitochondrial membrane potential (JC-1) assay; type: cell-based, Human; details: 20 μM/L, 48 h
Protocol: The JC-1 Assay Kit (Beyotime) was used to monitor the alteration of mitochondrial membrane potential as the manufacturer's instructions. MDA-MB-231 and MDA-MB-468 cells were seeded in six-well plates with an appropriate density (2×10^5/mL) and then treated with compound 7a at various concentrations (0, 5, 10, 20 μM) for 48 h. Then 100 μL of JC-1 staining solution was added into 1 mL of medium and incubated for 20 min at cell incubator. The BD Accuri™ C6 flow cytometry was used to analyze the samples. Each experiment was carried out in triplicate, and the results were expressed as the mean±SD.

HEK293T cells = experiment: HA-ubiquitin immunoprecipitation, H2A/H2AX ubiquitination; type: cell-based; details: 20 μM compound 7a for 24 h
Protocol: FIG. 6A: MDA-MB-231 and MDA-MB-468 were treated with indicated concentrations of compound 7a for 48 h, and then the immunofluorescence analysis was performed to detect γH2AX signal, the histone H2AX phosphorylation representing DSBs. Scale bar: 100 μm. FIG. 6B: γH2AX positive cells in (FIG. 6A) were counted and presented in the histogram. FIGS. 6C and 6D: following treatment with different concentrations (FIG. 6C) and times (FIG. 6D) of compound 7a, treated cell were lysed and phosphorylation/activation levels of ATM, NBS1, SMC1, γH2AX were examined by western blotting. Additionally, RNF8 and DNA repair proteins such as BRCA2 and RAD51 were detected using western. β-tubulin was employed as a loading control. […] P62 signal was measured by immunofluorescence analysis. […] HA-Ub was immunoprecipitated with HA binding beads and ubiquitinated H2A/H2AX was detected with anti-H2A/H2AX. […]
MDA-MB-231 and MDA-MB-468 cells were treated with the compound 7a (0, 5, 10 and 20 μmol/L) for 48 h, total protein was extracted using RIPA buffer (Beyotime, Shanghai, China) supplemented with protease/phosphatase inhibitor cocktail (Roche, Mannheim, Germany) at 4° C. for 30 min. The protein concentration was quantified by the BCA protein assay kit (Beyotime). […] The objective protein signal was obtained using an odyssey two-color infrared fluorescence imaging system (Li-cor, NE, USA). […]

HCT116 cells = experiment: mCherry-GFP-LC3B reporter autophagic flux assay; type: cell-based; details: 12 h treatment, versus control
Protocol: Mcherry-EGFP-LC3B overexpression system was co-transfected with lenviral packaging vectors pSPAX2 and pMD2G into HEK293FT cells using Fugene Transfection Reagent (Promega, MW, USA). Virus particles were collected after 48 h infection, filtered through a 0.22 μm membrane, added into colorectal cancer cell HCT116, and then incubated for 12 h at 37° C. The medium was replaced and HCT116 cells were selected for puromycin tolerance (10 μg/mL) to obtain the stable cells expressing mcherry-EGFP-LC3B.

For `O=C(NC1CCCCC1)c1[nH]cnc1-c1nc2ccccc2[nH]1` [Compound 7a], the TNBC cell viability (TNBC cells) was “efficiently inhibited TNBC cell viability in a time- and dose-dependent manner”, the “cells with reduced mitochondrial membrane potential” value [1] was ~50% and the “formation of H2A poly-ubiquitin chains” value (HEK293T cells) was “significantly reduced”. For the same compound, the “number of yellow fluorescent vesicles (autophagosomes)” value (HCT116 cells) was “significant increase in the number of yellow fluorescent vesicles”.
